Measurements as given in ChEMBL document CHEMBL1150976, “The selectivity of protein kinase inhibitors: a further update” (Biochem J, 2007).

Experiments:
[1] = target: Mitogen-activated protein kinase 10 (Homo sapiens) (UniProt P53779); assay: Percentage JNK3 activity remaining in the presence of 0.1uM inhibitor
[2] = target: Ribosomal protein S6 kinase alpha-5 (Homo sapiens) (UniProt O75582); assay: Percentage MSK1 activity remaining in the presence of 0.1uM inhibitor
[3] = target: T1, Inhibitor of nuclear factor kappa-B kinase subunit beta (Homo sapiens) (UniProt O14920); assay: Percentage IKK-beta activity remaining in the presence of 0.1uM inhibitor
T1 sequence (whole entry): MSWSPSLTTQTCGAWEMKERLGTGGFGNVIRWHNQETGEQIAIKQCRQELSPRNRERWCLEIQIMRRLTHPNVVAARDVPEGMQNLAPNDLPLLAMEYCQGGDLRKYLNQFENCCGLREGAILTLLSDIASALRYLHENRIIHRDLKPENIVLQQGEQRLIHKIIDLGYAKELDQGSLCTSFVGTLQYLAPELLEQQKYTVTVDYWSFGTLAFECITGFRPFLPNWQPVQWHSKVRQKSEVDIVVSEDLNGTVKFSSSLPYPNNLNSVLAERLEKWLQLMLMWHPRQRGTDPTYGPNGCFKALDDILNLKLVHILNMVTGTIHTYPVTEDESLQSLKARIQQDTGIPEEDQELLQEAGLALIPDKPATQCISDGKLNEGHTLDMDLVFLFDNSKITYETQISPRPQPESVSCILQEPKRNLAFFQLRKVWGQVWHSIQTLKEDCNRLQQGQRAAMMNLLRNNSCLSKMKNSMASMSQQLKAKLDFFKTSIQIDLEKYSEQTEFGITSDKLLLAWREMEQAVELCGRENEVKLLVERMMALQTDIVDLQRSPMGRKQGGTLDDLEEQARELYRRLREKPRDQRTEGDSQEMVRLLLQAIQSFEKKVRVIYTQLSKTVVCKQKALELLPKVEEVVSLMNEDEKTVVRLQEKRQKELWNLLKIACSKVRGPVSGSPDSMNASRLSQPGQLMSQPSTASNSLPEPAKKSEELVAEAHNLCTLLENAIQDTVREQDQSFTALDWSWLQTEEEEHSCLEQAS

[4] = target: Proto-oncogene tyrosine-protein kinase Src (Gallus gallus) (UniProt P00523); assay: Percentage Src activity remaining in the presence of 0.1uM inhibitor
[5] = target: Calcium/calmodulin-dependent protein kinase kinase 2 (Homo sapiens) (UniProt Q96RR4); assay: Percentage CaMKKbeta activity remaining in the presence of 0.1uM inhibitor
[6] = target: Calcium/calmodulin-dependent protein kinase type 1 (Homo sapiens) (UniProt Q14012); assay: Percentage CaMK1 activity remaining in the presence of 0.1uM inhibitor
[7] = target: Mitogen-activated protein kinase 3 (Homo sapiens) (UniProt P27361); assay: Percentage ERK1 activity remaining in the presence of 0.1uM inhibitor
[8] = target: T2, Mitogen-activated protein kinase 15 (Homo sapiens) (UniProt Q8TD08); assay: Percentage ERK8 activity remaining in the presence of 0.1uM inhibitor
T2 sequence (whole entry): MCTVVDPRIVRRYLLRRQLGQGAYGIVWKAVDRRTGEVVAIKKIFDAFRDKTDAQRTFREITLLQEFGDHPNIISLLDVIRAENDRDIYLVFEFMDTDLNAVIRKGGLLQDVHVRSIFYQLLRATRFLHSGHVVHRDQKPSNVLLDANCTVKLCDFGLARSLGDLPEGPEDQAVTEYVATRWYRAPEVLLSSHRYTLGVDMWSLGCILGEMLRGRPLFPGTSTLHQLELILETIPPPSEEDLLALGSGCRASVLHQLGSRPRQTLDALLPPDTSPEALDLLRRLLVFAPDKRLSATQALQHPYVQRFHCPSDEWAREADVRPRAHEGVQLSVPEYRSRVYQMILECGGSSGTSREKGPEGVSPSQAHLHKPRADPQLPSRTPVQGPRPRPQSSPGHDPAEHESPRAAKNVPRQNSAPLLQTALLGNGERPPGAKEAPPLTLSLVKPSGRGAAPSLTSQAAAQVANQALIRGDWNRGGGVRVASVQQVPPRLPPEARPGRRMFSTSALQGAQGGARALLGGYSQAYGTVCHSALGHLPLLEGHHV

[9] = target: T3, Serine/threonine-protein kinase 3 (Homo sapiens) (UniProt Q13188); assay: Percentage MST2 activity remaining in the presence of 0.1uM inhibitor
T3 sequence (whole entry): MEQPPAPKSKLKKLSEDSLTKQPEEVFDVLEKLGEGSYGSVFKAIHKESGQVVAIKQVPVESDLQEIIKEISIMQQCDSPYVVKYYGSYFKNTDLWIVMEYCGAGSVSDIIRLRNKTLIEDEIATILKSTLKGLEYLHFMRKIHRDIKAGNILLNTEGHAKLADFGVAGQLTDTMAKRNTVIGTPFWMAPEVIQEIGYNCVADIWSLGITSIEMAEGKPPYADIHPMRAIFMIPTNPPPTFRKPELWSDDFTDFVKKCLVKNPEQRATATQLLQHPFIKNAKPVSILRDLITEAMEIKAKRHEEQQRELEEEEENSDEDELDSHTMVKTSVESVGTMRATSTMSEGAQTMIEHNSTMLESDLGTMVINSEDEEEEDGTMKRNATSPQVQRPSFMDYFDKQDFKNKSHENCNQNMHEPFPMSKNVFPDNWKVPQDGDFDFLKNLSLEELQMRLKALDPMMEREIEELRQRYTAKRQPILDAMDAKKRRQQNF

[10] = target: T4, 3-phosphoinositide-dependent protein kinase 1 (Homo sapiens) (UniProt O15530); assay: Percentage PDK1 activity remaining in the presence of 0.1uM inhibitor
T4 sequence (whole entry): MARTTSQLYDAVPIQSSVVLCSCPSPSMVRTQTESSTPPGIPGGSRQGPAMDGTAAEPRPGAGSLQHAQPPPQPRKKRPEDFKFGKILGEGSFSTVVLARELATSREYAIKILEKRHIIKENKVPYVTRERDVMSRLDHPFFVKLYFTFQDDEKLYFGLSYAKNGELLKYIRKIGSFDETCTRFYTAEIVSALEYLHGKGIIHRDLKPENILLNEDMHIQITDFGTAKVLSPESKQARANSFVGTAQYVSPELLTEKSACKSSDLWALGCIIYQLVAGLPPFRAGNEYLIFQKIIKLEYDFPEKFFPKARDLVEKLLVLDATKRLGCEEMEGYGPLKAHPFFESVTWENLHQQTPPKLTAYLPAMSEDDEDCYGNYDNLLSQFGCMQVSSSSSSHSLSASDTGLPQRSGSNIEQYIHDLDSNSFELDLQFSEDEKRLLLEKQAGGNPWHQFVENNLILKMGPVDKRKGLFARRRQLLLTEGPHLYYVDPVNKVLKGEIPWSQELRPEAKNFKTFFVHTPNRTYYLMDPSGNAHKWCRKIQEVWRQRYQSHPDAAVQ

Sequence of Mitogen-activated protein kinase 10 (Homo sapiens) (P53779 whole entry): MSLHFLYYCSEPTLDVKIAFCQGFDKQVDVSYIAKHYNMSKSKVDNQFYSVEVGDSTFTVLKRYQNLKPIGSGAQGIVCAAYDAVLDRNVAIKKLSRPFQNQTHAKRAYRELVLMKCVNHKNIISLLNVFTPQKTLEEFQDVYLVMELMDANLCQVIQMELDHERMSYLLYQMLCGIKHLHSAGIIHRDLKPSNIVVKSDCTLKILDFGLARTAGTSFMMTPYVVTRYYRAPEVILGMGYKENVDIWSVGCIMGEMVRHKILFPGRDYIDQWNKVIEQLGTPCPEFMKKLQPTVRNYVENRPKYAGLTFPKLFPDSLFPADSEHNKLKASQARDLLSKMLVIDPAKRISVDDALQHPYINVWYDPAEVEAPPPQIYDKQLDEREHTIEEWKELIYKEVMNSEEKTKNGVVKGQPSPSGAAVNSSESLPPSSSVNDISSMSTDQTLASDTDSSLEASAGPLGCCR
Sequence of Mitogen-activated protein kinase 3 (Homo sapiens) (P27361 whole entry): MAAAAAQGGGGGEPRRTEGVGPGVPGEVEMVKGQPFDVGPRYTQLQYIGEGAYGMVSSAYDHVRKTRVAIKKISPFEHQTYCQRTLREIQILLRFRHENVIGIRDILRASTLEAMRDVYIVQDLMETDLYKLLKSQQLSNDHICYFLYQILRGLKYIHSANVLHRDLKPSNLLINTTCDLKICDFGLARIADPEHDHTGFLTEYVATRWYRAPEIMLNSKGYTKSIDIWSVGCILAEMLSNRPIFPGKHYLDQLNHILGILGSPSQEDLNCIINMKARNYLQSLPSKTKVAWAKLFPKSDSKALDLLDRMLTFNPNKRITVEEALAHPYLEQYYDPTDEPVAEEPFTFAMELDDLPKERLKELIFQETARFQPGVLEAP
Sequence of Ribosomal protein S6 kinase alpha-5 (Homo sapiens) (O75582 whole entry, looked up): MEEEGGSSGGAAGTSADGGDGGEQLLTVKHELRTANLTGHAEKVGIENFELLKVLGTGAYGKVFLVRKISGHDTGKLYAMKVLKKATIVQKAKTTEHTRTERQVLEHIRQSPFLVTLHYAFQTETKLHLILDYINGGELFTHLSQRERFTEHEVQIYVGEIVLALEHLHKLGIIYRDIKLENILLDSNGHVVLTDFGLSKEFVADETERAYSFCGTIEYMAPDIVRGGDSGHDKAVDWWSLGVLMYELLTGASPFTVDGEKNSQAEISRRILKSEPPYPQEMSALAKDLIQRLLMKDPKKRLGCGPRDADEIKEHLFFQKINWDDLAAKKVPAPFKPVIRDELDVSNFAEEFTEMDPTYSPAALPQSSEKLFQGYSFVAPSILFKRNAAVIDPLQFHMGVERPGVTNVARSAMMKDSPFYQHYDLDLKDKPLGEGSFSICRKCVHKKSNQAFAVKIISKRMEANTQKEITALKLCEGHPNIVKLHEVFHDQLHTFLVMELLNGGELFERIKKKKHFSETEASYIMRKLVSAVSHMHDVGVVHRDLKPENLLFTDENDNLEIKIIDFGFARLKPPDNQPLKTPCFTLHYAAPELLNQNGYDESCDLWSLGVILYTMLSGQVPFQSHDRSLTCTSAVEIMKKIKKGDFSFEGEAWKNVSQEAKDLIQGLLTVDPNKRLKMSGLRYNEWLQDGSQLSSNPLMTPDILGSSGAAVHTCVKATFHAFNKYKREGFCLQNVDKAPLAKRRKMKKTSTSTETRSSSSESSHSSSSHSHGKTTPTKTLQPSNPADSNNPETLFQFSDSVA
Sequence of Calcium/calmodulin-dependent protein kinase kinase 2 (Homo sapiens) (Q96RR4 2-588 limits assumed): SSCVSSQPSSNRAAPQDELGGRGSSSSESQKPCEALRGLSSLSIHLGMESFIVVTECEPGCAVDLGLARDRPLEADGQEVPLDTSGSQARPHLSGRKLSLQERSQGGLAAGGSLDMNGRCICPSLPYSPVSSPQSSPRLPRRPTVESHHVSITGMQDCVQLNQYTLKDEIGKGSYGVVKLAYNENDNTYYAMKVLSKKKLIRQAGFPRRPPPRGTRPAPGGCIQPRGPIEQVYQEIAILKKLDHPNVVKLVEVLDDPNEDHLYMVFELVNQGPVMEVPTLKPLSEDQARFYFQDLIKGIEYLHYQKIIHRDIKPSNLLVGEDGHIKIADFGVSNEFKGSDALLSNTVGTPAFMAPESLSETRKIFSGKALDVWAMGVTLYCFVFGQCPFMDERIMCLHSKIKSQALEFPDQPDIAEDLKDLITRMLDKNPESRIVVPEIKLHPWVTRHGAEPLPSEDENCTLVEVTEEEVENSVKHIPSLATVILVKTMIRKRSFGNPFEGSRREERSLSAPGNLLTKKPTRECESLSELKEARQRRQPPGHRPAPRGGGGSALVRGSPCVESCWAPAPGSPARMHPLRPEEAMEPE
Sequence of Calcium/calmodulin-dependent protein kinase type 1 (Homo sapiens) (Q14012 whole entry, looked up): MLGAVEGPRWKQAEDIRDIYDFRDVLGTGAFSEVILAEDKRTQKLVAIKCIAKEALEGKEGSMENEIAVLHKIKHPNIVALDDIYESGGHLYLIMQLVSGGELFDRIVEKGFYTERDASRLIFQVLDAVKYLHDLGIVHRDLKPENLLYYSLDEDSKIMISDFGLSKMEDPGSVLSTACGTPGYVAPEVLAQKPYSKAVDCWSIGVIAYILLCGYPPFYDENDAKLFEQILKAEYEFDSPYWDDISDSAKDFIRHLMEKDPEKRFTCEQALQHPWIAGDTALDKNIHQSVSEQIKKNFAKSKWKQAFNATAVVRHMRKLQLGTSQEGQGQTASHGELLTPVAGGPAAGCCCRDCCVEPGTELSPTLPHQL

**Q.** How did the Activity [1] turn out when `CC(C)[C@H](CO)Nc1nc(Nc2cccc(Cl)c2)c2ncn(C(C)C)c2n1` [PURVALANOLA] was run?
**A.** 100%

**Q.** What about the Activity [2] of the same compound?
**A.** 89%

**Q.** And the Activity [3]?
**A.** 89%

**Q.** And the Activity ([4]; filed as antagonist)?
**A.** 14%

**Q.** What about the Activity [5] of the same compound?
**A.** 60%

**Q.** And the Activity [6]?
**A.** 99%

**Q.** And the Activity [7]?
**A.** 95%

**Q.** And the Activity [8]?
**A.** 70%

**Q.** And the Activity [9]?
**A.** 60%

**Q.** What about the Activity [10] of the same compound?
**A.** 79%

**Q.** For `Cn1c2ccccc2c2c3c(c4c5ccccc5n(CCC#N)c4c21)CNC3=O`, which Activity [1] is on record?
**A.** 79%

**Q.** What about the Activity ([2]; filed as antagonist) of the same compound?
**A.** 6%

**Q.** What about the Activity [3] of the same compound?
**A.** 76%

**Q.** What about the Activity [4] of the same compound?
**A.** 65%

**Q.** What about the Activity ([5]; filed as antagonist) of the same compound?
**A.** 11%

**Q.** And the Activity [6]?
**A.** 98%

**Q.** And the Activity ([7]; filed as antagonist)?
**A.** 44%

**Q.** What about the Activity ([8]; filed as antagonist) of the same compound?
**A.** 38%

**Q.** What about the Activity ([9]; filed as antagonist) of the same compound?
**A.** 3%

**Q.** What about the Activity ([10]; filed as antagonist) of the same compound?
**A.** 11%

**Q.** Which Activity [1] does the source give for `O=C(NCCCNc1nc(Nc2cccc(NC(=O)N3CCCC3)c2)ncc1I)c1cccs1` here?
**A.** 93%

**Q.** What about the Activity [2] of the same compound?
**A.** 84%

**Q.** What about the Activity [3] of the same compound?
**A.** 93%

**Q.** What about the Activity [4] of the same compound?
**A.** 77%

**Q.** And the Activity ([5]; filed as antagonist)?
**A.** 30%

**Q.** And the Activity [6]?
**A.** 71%

**Q.** What about the Activity [7] of the same compound?
**A.** 66%

**Q.** And the Activity ([8]; filed as antagonist)?
**A.** 7%

**Q.** What about the Activity [9] of the same compound?
**A.** 92%

**Q.** And the Activity ([10]; filed as antagonist)?
**A.** 5%

**Q.** For `CC(C)CCN1c2nc(Nc3cc(F)c(O)c(F)c3)ncc2N(C)C(=O)C1C` (stereo not drawn), which Activity [1] is on record?
**A.** 97%

**Q.** What about the Activity [2] of the same compound?
**A.** 125%

**Q.** And the Activity [3]?
**A.** 106%

**Q.** And the Activity [4]?
**A.** 96%

**Q.** What about the Activity [5] of the same compound?
**A.** 73%

**Q.** What about the Activity [6] of the same compound?
**A.** 103%

**Q.** What about the Activity [7] of the same compound?
**A.** 115%

**Q.** What about the Activity [8] of the same compound?
**A.** 82%

**Q.** What about the Activity ([9]; filed as antagonist) of the same compound?
**A.** 41%

**Q.** What about the Activity [10] of the same compound?
**A.** 94%

**Q.** Which results are given for `Cn1cc(C2=C(c3cn(CCCSC(=N)N)c4ccccc34)C(=O)NC2=O)c2ccccc21`?
**A.** Activity [1]: 102%; Activity ([2]; filed as antagonist): 11%; Activity [3]: 91%; Activity [4]: 91%; Activity [5]: 65%; Activity [6]: 91%; Activity [7]: 88%; Activity [8]: 51%; Activity [9]: 80%; Activity [10]: 62%

**Q.** With `CN(C)C[C@@H]1CCn2cc(c3ccccc32)C2=C(C(=O)NC2=O)c2cn(c3ccccc23)CCO1` as the compound, how does the Activity [1] read?
**A.** 112%

**Q.** What about the Activity ([2]; filed as antagonist) of the same compound?
**A.** 44%

**Q.** And the Activity [3]?
**A.** 86%

**Q.** And the Activity [4]?
**A.** 97%

**Q.** What about the Activity [5] of the same compound?
**A.** 53%

**Q.** What about the Activity [7] of the same compound?
**A.** 84%

**Q.** And the Activity [8]?
**A.** 92%

**Q.** And the Activity ([9]; filed as antagonist)?
**A.** 37%

**Q.** What about the Activity ([10]; filed as antagonist) of the same compound?
**A.** 25%

**Q.** How did the Activity [1] turn out when `Cc1n[nH]c2ccc(-c3cncc(OC[C@@H](N)Cc4c[nH]c5ccccc45)c3)cc12` was run?
**A.** 86%

**Q.** What about the Activity ([2]; filed as antagonist) of the same compound?
**A.** 9%

**Q.** What about the Activity [3] of the same compound?
**A.** 89%

**Q.** And the Activity [4]?
**A.** 86%

**Q.** What about the Activity [6] of the same compound?
**A.** 77%

**Q.** What about the Activity [7] of the same compound?
**A.** 59%

**Q.** And the Activity ([8]; filed as antagonist)?
**A.** 28%

**Q.** And the Activity ([9]; filed as antagonist)?
**A.** 29%

**Q.** And the Activity [10]?
**A.** 79%
